Data as given in the supplement of paper PMC11061612.

How the values were obtained:
[1] = compound: CC1(C)CCC(CN2CCN(c3ccc(C(=O)NS(=O)(=O)c4ccc(NCC5CCOCC5)c([N+](=O)[O-])c4)c(Oc4cnc5[nH]ccc5c4)c3)CC2)=C(c2ccc(Cl)cc2)C1 [Venetoclax]; settings: max 1 µM
Outline: (§1)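 Cancer cell lines were plated in 1536-well plates in 7.5 μl of DMEM/F12 or RPMI with 10% FBS and kept 24 hours at 37°C and 5% CO2 before 72 hours of dosing, with final DMSO typically 0.2%. CellTiter-Glo 2.0 luminescence measured viability, scaled between blank-well and DMSO-well means. Dose responses were fitted to a two-parameter logistic curve with a non-linear mixed effects model. This fit gives the single-agent IC50.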

[2] = compound: CC(C)n1c(=O)n(C)c2cnc3cc(F)c(-c4ccc(OCCCN5CCCCC5)nc4)cc3c21 [AZD1390]; settings: max 0.3 µM
Outline: as §1

[3] = compound: CC1=CN2[C@@H](C1)C=NC3=CC(=C(C=C3C2=O)OC)OCCCCCOC4=C(C=C5C(=C4)N=C[C@@H]6CC(=CN6C5=O)C)OC [SG3199]; settings: max 0.001 µM
Outline: as §1

[4] = compound: COc1nnc2ccc(N3CCC(c4ccc(OCCN5CCN(C)C(=O)[C@H]5C)cc4)CC3)nn12 [AZD5153]; settings: max 1 µM
Outline: as §1

[5] = compound: Cn1cnc2c(F)c(Nc3ccc(Br)cc3Cl)c(C(=O)NOCCO)cc21 [Selumetinib]; settings: max 10 µM
Outline: as §1

[6] = compound: COc1cc2ncnc(Nc3ccc(F)c(Cl)c3)c2cc1OCCCN1CCOCC1 [Gefitinib]; settings: max 10 µM
Outline: as §1

[7] = compound: Cc1c2c(nn1C)CSCc1cc(n(C)n1)CSc1cc(c3ccccc3c1)OCCCc1c(C(=O)O)n(C)c3c-2c(Cl)ccc13 [AZD5991]; settings: max 1 µM
Outline: as §1

[8] = compound: CN(C)CCCOc1ccc(-c2ccc3ncc4c(c3c2)n(C2CCOCC2)c(=O)n4C)cn1 [AZD0156]; settings: max 3 µM
Outline: as §1

[9] = compound: CS(=O)(=O)CCNCc1ccc(-c2ccc3ncnc(Nc4ccc(OCc5cccc(F)c5)c(Cl)c4)c3c2)o1 [Lapatinib]; settings: max 10 µM
Outline: as §1

[10] = compound: COc1cccc2c1C(=O)c1c(O)c3c(c(O)c1C2=O)C[C@@](O)(C(=O)CO)C[C@@H]3O[C@H]1C[C@H](N)[C@H](O)[C@H](C)O1 [Doxorubicin]; settings: max 1 µM
Outline: as §1

[11] = compound: C[C@@H](Oc1cc(-c2cnn(C3CCNCC3)c2)cnc1N)c1c(Cl)ccc(F)c1Cl [Crizotinib]; settings: max 10 µM
Outline: as §1

[12] = compound: C[C@@H]1COCCN1C2=NC(=NC(=C2)C3(CC3)[S@](=N)(=O)C)C4=C5C=CNC5=NC=C4 [AZD6738]; settings: max 10 µM
Outline: as §1

[13] = compound: C=CCn1c(=O)c2cnc(Nc3ccc(N4CCN(C)CC4)cc3)nc2n1-c1cccc(C(C)(C)O)n1 [AZD1775]; settings: max 3 µM
Outline: as §1

[14] = compound: CC(=O)c1c(C)c2cnc(Nc3ccc(N4CCNCC4)cn3)nc2n(C2CCCC2)c1=O [Palbociclib]; settings: max 10 µM
Outline: as §1

[15] = compound: CCN(CCO)CCCOc1ccc2c(Nc3cc(CC(=O)Nc4cccc(F)c4)[nH]n3)ncnc2c1 [AZD2811]; settings: max 1 µM
Outline: as §1

[16] = compound: O=C(c1cc(Cc2n[nH]c(=O)c3ccccc23)ccc1F)N1CCN(C(=O)C2CC2)CC1 [Olaparib]
Outline: as §1

[17] = compound: CC1=C(C(=CC=C1)Cl)NC(=O)C2=CN=C(S2)NC3=CC(=NC(=N3)C)N4CCN(CC4)CCO [Dasatinib]; settings: max 2 µM
Outline: as §1

[18] = compound: COc1cccc(OCCCN)c1-c1cc(Nc2cnc(C#N)cn2)n[nH]1 [Prexasertib]; settings: max 1 µM
Outline: as §1

[19] = compound: COc1cc(Nc2ncc3c(n2)-c2ccc(Cl)cc2C(c2c(F)cccc2OC)=NC3)ccc1C(=O)O [Alisertib]; settings: max 10 µM
Outline: as §1

[20] = compound: Cc1cc2ncnn2cc1Nc1ncc2c(n1)n(C1CCOCC1)c(=O)n2C [AZD7648]; settings: max 10 µM
Outline: as §1

[21] = compound: CC(=O)Nc1cccc(-n2c(=O)n(C3CC3)c(=O)c3c(Nc4ccc(I)cc4F)n(C)c(=O)c(C)c32)c1 [Trametinib]; settings: max 1 µM
Outline: as §1

[22] = compound: Cc1nc(-c2cn3c(n2)-c2ccc(-c4cnn(C(C)(C)C(N)=O)c4)cc2OCC3)n(C(C)C)n1 [Taselisib]; settings: max 10 µM
Outline: as §1

[23] = compound: C[C@@H](Nc1cc(F)cc(F)c1)c1cc(C(=O)N(C)C)cc2c(=O)cc(N3CCOCC3)oc12 [AZD8186]; settings: max 3 µM
Outline: as §1

[24] = compound: C1CN(CCC1(C(=O)N[C@@H](CCO)C2=CC=C(C=C2)Cl)N)C3=NC=NC4=C3C=CN4 [Capivasertib]
Outline: as §1

[25] = compound: CCc1c2c(nc3ccc(O)cc13)-c1cc3c(c(=O)n1C2)COC(=O)[C@]3(O)CC [SN-38]; settings: max 0.3 µM
Outline: as §1

[26] = compound: CN(CC[C@H](CSC1=CC=CC=C1)NC2=C(C=C(C=C2)S(=O)(=O)NC(=O)C3=CC=C(C=C3)N4CCC(CC4)[C@H](C5=CC=CC=C5C6=CC=C(C=C6)Cl)O)S(=O)(=O)C(F)(F)F)CCO [AZD4320]; settings: max 1 µM
Outline: as §1

[27] = compound: C[C@@H](c1ccc2nccn2c1)n1nnc2ncc(-c3cnn(C)c3)nc21 [Savolitinib]; settings: max 1 µM
Outline: as §1

| Cell Line | IC50, cell viability 72 h [1] [nM] | IC50, cell viability 72 h [2] [nM] | IC50, cell viability 72 h [3] [nM] | IC50, cell viability 72 h [4] [nM] | IC50, cell viability 72 h [5] [nM] | IC50, cell viability 72 h [6] [nM] | IC50, cell viability 72 h [7] [nM] | IC50, cell viability 72 h [8] [nM] | IC50, cell viability 72 h [9] [nM] | IC50, cell viability 72 h [10] [nM] | IC50, cell viability 72 h [11] [nM] | IC50, cell viability 72 h [12] [nM] | IC50, cell viability 72 h [13] [nM] | IC50, cell viability 72 h [14] [nM] | IC50, cell viability 72 h [15] [nM] | IC50, cell viability 72 h ([16]; max 10 µM) [nM] | IC50, cell viability 72 h [17] [nM] | IC50, cell viability 72 h [18] [nM] | IC50, cell viability 72 h [19] [nM] | IC50, cell viability 72 h [20] [nM] | IC50, cell viability 72 h [21] [nM] | IC50, cell viability 72 h [22] [nM] | IC50, cell viability 72 h [23] [nM] | IC50, cell viability 72 h ([24]; max 10 µM) [nM] | IC50, cell viability 72 h [25] [nM] | IC50, cell viability 72 h [26] [nM] | IC50, cell viability 72 h [27] [nM] | IC50, cell viability 72 h ([16]; max 3 µM) [nM] | IC50, cell viability 72 h ([24]; max 3 µM) [nM] |
| --- | --- | --- | --- | --- | --- | --- | --- | --- | --- | --- | --- | --- | --- | --- | --- | --- | --- | --- | --- | --- | --- | --- | --- | --- | --- | --- | --- | --- | --- |
| 8505C (Thyroid Gland Carcinoma) | > 1000 | > 300 | > 1 | > 1000 | > 10000 | > 10000 | > 1000 | > 3000 | > 10000 | 565 | > 10000 | > 10000 | 1600 | > 10000 | > 1000 | > 10000 | > 2000 | 829 | > 10000 | > 10000 | > 1000 | > 10000 | > 3000 | > 10000 | 23.6 | > 1000 | > 1000 |  |  |
| BICR10 (Oral Cavity Carcinoma) |  |  |  |  |  |  |  | > 3000 |  |  |  |  | 413 |  |  |  |  |  |  |  |  |  |  |  |  |  |  | > 3000 | 2520 |
| CHSA8926 (Chondrosarcoma) | > 1000 | > 300 | > 1 | > 1000 | > 10000 | > 10000 | > 1000 | > 3000 | > 10000 | 703 | 9160 | > 10000 | 1270 | > 10000 | > 1000 | > 10000 | 60.8 | > 1000 | > 10000 | > 10000 |  | 1520 | 2240 | > 10000 | > 300 | > 1000 | > 1000 |  |  |
| DAN-G (Pancreatic Carcinoma) | > 1000 | > 300 | > 1 | > 1000 | > 10000 | > 10000 | > 1000 | > 3000 | > 10000 | > 1000 | > 10000 | 5490 | 405 | > 10000 | > 1000 | > 10000 | > 2000 | 72.7 | > 10000 | > 10000 | 675 | 718 | > 3000 | > 10000 | > 300 | > 1000 | > 1000 |  |  |
| ESO51 (Esophageal Adenocarcinoma) | > 1000 | > 300 | > 1 | 354 | > 10000 | > 10000 | > 1000 | > 3000 | > 10000 | > 1000 | 186 | 1790 | 298 | > 10000 | > 1000 | > 10000 | > 2000 | 42.4 | > 10000 | > 10000 | 35 | > 10000 | > 3000 | > 10000 | > 300 | > 1000 | 14.2 |  |  |
| G-361 (Melanoma) | > 1000 | > 300 | > 1 | 277 | 1540 | > 10000 | 306 | > 3000 | 8000 | 816 | 8660 | > 10000 | 1590 | > 10000 | > 1000 | > 10000 | > 2000 | 149 | > 10000 | > 10000 | 14.6 | 7240 | > 3000 | > 10000 | > 300 | > 1000 | > 1000 |  |  |
| HCC1187 (Breast Carcinoma) | > 1000 | > 300 | > 1 | > 1000 | > 10000 | > 10000 | 87.7 | > 3000 | > 10000 | > 1000 | 4570 | > 10000 | 1060 | > 10000 | 29.4 | > 10000 | > 2000 | 362 | 114 | > 10000 | > 1000 | > 10000 | > 3000 | > 10000 | > 300 | > 1000 | > 1000 |  |  |
| HCC1419 (Breast Carcinoma) | > 1000 | > 300 | > 1 | > 1000 | > 10000 | > 10000 | > 1000 | > 3000 |  | > 1000 |  | > 10000 | > 3000 |  | > 1000 | > 10000 |  | > 1000 | > 10000 | > 10000 | > 1000 | 7760 | > 3000 |  | > 300 | > 1000 | > 1000 |  | > 3000 |
| JHH-4 (Hepatocellular Carcinoma) | > 1000 | > 300 | > 1 | > 1000 | > 10000 | > 10000 | > 1000 | > 3000 | > 10000 | > 1000 | > 10000 | > 10000 | > 3000 | > 10000 | > 1000 | > 10000 | 173 | 912 | 6480 | > 10000 | 118 | > 10000 | > 3000 | > 10000 | 31 | > 1000 | > 1000 |  |  |
